Test results reported in patent US11590116B2 (THERAVANCE BIOPHARMA R&D IP, LLC, priority 2019, dated 2023).

Columns and labels:
[1] = system: TGF-β-stimulated SMAD3 phosphorylation in BEAS-2B cells; test: Cellular ALK5 potency assay, inhibition of TGF-β stimulated pSMAD3 formation in BEAS-2B cells; format: cell-based; settings: Homo sapiens; inhibition of TGF-β stimulated pSMAD3 formation, BEAS-2B cells; read-out: BEAS2B pIC50 (converted)
How it was run: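 BEAS-2B human lung epithelial cells, seeded overnight, were pre-treated with compound in HBSS/25 mM HEPES/1% BSA for 1 h at 37 °C, then stimulated with TGF-β (final 10 ng/mL) for 30 min. Lysates were assayed for pSMAD3 by AlphaLISA; pIC50 came from dose-dependent signal change versus TGF-β-stimulated untreated cells.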

[2] = molecular target: T1, recombinant human ALK5 (TGF-βR1) protein (Homo sapiens, UniProt P36897); test: Biochemical ALK5 (TGF-βR1) assay to measure pKi (LANCE Ultra ULight kinase assay); settings: apparent pKi from pIC50 by Cheng-Prusoff, read-out: ALK5 pKi (converted)
T1 construct: purchased Life Technologies PR9075A
T1 sequence (P36897 34-503): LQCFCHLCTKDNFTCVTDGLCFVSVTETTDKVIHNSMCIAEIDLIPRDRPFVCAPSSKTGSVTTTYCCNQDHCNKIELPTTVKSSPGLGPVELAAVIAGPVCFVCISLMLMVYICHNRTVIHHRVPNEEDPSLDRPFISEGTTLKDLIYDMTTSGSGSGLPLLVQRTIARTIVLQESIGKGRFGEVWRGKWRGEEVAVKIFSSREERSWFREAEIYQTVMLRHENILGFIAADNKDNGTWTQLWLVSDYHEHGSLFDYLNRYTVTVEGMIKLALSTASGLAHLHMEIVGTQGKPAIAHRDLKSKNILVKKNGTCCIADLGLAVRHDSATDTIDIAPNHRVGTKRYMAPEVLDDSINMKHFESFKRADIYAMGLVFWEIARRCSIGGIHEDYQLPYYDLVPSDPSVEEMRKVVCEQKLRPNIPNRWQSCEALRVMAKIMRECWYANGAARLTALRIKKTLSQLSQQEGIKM
How it was run: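 Dose range 10 μM–25 pM; enzyme + compound 60 min RT; ATP added (5× stock 125 μM, 2 mM DTT); 60 min 37 °C; stop with EDTA + Eu anti-phospho-Topo IIα Thr1342 Ab; TR-FRET ex 320/340, em 665 nm. 4-param pIC50 → pKi (Cheng-Prusoff).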

| Ki [2] | SMILES | IC50 [1] |
| --- | --- | --- |
| 0.0398 to 0.316 nM | Cc1cccc(-c2n[nH]cc2-c2ccc3ncc(-c4ncc5n4CCN5)cc3n2)n1 [Compound 641, 7-(2,3-dihydro-1H-imidazo[1,5-a]imidazol-5-yl)-2-[3-(6-methyl-2-pyridyl)-1H-pyrazol-4-yl]-1,5-naphthyridine] | 25.1 to 158 nM |
| 3.98 to 31.6 nM | Cc1cccc(-c2[nH]cnc2-c2ccc3ncc(C(=O)O[C@@H]4CCCC[C@@H]4N)cc3c2)n1 [Compound 881, (1R,2S)-2-aminocyclohexyl 6-(5-(6-methylpyridin-2-yl)-1H-imidazol-4-yl)quinoline-3-carboxylate] | 200 to 1260 nM |
| 0.0398 to 0.316 nM | Cc1cccc(-c2n[nH]cc2-c2ccc3ncc(N4CCN(CCNC(C)C)CC4)cc3n2)n1 [Compound 637, N-[2-[4-[6-[3-(6-methyl-2-pyridyl)-1H-pyrazol-4-yl]-1,5-naphthyridin-3-yl]piperazin-1-yl]ethyl]propan-2-amine] | 25.1 to 158 nM |
| 0.0398 to 0.316 nM | Cc1cccc(-c2[nH]cnc2-c2ccc3ncc(NC[C@@H]4CCCN4)cc3c2)n1 [Compound 679, 6-[5-(6-methyl-2-pyridyl)-1H-imidazol-4-yl]-N-[[(2S)-pyrrolidin-2-yl]methyl]quinolin-3-amine] | 200 to 1260 nM |
| < 0.0316 nM | CNC1CCN(c2cnc3ccc(-c4c[nH]nc4-c4cccc(C)n4)nc3c2)CC1 [Compound 45, N-methyl-1-[6-[3-(6-methyl-2-pyridyl)-1H-pyrazol-4-yl]-1,5-naphthyridin-3-yl]piperidin-4-amine] | 25.1 to 158 nM |
| 0.398 to 3.16 nM | CNc1ccnc2ccc(-c3c[nH]nc3-c3cccc(C)n3)nc12 [Compound 838, N-methyl-6-[3-(6-methyl-2-pyridyl)-1H-pyrazol-4-yl]-1,5-naphthyridin-4-amine] | 25.1 to 158 nM |
| 0.0398 to 0.316 nM | Cc1cccc(-c2n[nH]cc2-c2ccc3ncc(-c4cn(CCN5CCOCC5)nn4)cc3n2)n1 [Compound 340, 4-[2-[4-[6-[3-(6-methyl-2-pyridyl)-1H-pyrazol-4-yl]-1,5-naphthyridin-3-yl]triazol-1-yl]ethyl]morpholine] | 25.1 to 158 nM |
| 0.0398 to 0.316 nM | Cc1cccc(-c2[nH]cnc2-c2ccc3ncc(NCCN4CCNC(C(=O)O)C4)cc3c2)n1 (stereo not shown) [Compound 712, 4-[2-[[6-[5-(6-methyl-2-pyridyl)-1H-imidazol-4-yl]-3-quinolyl]amino]ethyl]piperazine-2-carboxylic acid] | 200 to 1260 nM |
| 0.0398 to 0.316 nM | Cc1cccc(-c2[nH]nnc2-c2ccc3ncc(N4CCC(N5CCN(C)CC5)CC4)cc3c2)n1 [Compound 346, 3-[4-(4-methylpiperazin-1-yl)-1-piperidyl]-6-[5-(6-methyl-2-pyridyl)-1H-triazol-4-yl]quinoline] | 25.1 to 158 nM |
| 0.0398 to 0.316 nM | Cc1cccc(-c2n[nH]cc2-c2ccc3ncc(N4CCC5NCCC5C4)cc3n2)n1 (stereo not shown) [Compound 151, 7-(1,2,3,3a,4,6,7,7a-octahydropyrrolo[3,2-c]pyridin-5-yl)-2-[3-(6-methyl-2-pyridyl)-1H-pyrazol-4-yl]-1,5-naphthyridine] | 25.1 to 158 nM |
| 0.0398 to 0.316 nM | Cc1cccc(-c2nc3ccccn3c2-c2ccc3ncc(-c4nnn5c4CNCC5)cc3n2)n1 [Compound 207, 2-[2-(6-methyl-2-pyridyl)imidazo[1,2-a]pyridin-3-yl]-7-(4,5,6,7-tetrahydrotriazolo[1,5-a]pyrazin-3-yl)-1,5-naphthyridine] | 25.1 to 158 nM |
| 0.0398 to 0.316 nM | Cc1cccc(-c2n[nH]cc2-c2ccc3ncc(NC(=O)CN4CCOCC4)cc3n2)n1 [Compound 353, N-[6-[3-(6-methyl-2-pyridyl)-1H-pyrazol-4-yl]-1,5-naphthyridin-3-yl]-2-morpholino-acetamide] | 25.1 to 158 nM |
| 0.398 to 3.16 nM | Cc1cccc(-c2[nH]cnc2-c2ccc3ncc(C(=O)O[C@H]4CCC[C@H](N)C4)cc3c2)n1 (racemic) [Compound 774, [rac-(1S,3S)-3-aminocyclohexyl] 6-[5-(6-methyl-2-pyridyl)-1H-imidazol-4-yl]quinoline-3-carboxylate] | 200 to 1260 nM |
| 0.0398 to 0.316 nM | Cc1cccc(-c2nc3ccccn3c2-c2ccc3ncc(N4CCCNCC4)cc3c2)n1 [Compound 363, 3-(1,4-diazepan-1-yl)-6-[2-(6-methyl-2-pyridyl)imidazo[1,2-a]pyridin-3-yl]quinoline] | 25.1 to 158 nM |
| 3.98 to 31.6 nM | Cc1cccc(-c2[nH]cnc2-c2ccc3nccc(C4CCCN4)c3c2)n1 (stereo not shown) [Compound 154, 6-[5-(6-methyl-2-pyridyl)-1H-imidazol-4-yl]-4-pyrrolidin-2-yl-quinoline] | 200 to 1260 nM |
| 0.0398 to 0.316 nM | Cc1cccc(-c2n[nH]cc2-c2ccc3ncc(CO)cc3n2)n1 [Compound 126, [6-[3-(6-methyl-2-pyridyl)-1H-pyrazol-4-yl]-1,5-naphthyridin-3-yl]methanol] | 25.1 to 158 nM |
| < 0.0316 nM | Cc1nc(-c2[nH]cnc2-c2ccc3ncc(-c4cn[nH]c4)cc3c2)ccc1F [Compound 423, 6-[5-(5-fluoro-6-methyl-2-pyridyl)-1H-imidazol-4-yl]-3-(1H-pyrazol-4-yl)quinoline] | < 20 nM |
| 0.0398 to 0.316 nM | Cc1cccc(-c2[nH]cnc2-c2ccc3ncc(-c4ncc(C(=O)OC5CNC5)s4)cc3c2)n1 [Compound 1018, azetidin-3-yl 2-(6-(5-(6-methylpyridin-2-yl)-1H-imidazol-4-yl)quinolin-3-yl)thiazole-5-carboxylate] | 25.1 to 158 nM |
| < 0.0316 nM | Cc1nc(-c2n[nH]cc2-c2ccc3ncc(N4CCC(N5CCN(C)CC5)CC4)cc3n2)ccc1F [Compound 539, 2-[3-(5-fluoro-6-methyl-2-pyridyl)-1H-pyrazol-4-yl]-7-[4-(4-methylpiperazin-1-yl)-1-piperidyl]-1,5-naphthyridine] | 25.1 to 158 nM |
| 0.0398 to 0.316 nM | Cc1cccc(-c2[nH]cnc2-c2ccc3ncc(C4=C[C@H](C)N[C@H](C)C4)cc3c2)n1 [Compound 451, 3-[(2R,6S)-2,6-dimethyl-1,2,3,6-tetrahydropyridin-4-yl]-6-[5-(6-methyl-2-pyridyl)-1H-imidazol-4-yl]quinoline] | 25.1 to 158 nM |
| < 0.0316 nM | Cc1cccc(-c2n[nH]cc2-c2ccc3ncc(Nc4ccc(N5CCNCC5)cn4)cc3c2)n1 [Compound 121, 6-[3-(6-methyl-2-pyridyl)-1H-pyrazol-4-yl]-N-(5-piperazin-1-yl-2-pyridyl)quinolin-3-amine] | 25.1 to 158 nM |
| 0.0398 to 0.316 nM | Cc1cccc(-c2[nH]cnc2-c2ccc3ncc(-c4cn5c(n4)CNCC5)cc3n2)n1 [Compound 414, 2-(5-(6-methylpyridin-2-yl)-1H-imidazol-4-yl)-7-(5,6,7,8-tetrahydroimidazo[1,2-a]pyrazin-2-yl)-1,5-naphthyridine] | 25.1 to 158 nM |
| 0.398 to 3.16 nM | CNCc1ccnc2ccc(-c3c[nH]nc3-c3cccc(C)n3)cc12 [Compound 549, N-methyl-1-[6-[3-(6-methyl-2-pyridyl)-1H-pyrazol-4-yl]-4-quinolyl]methanamine] | 25.1 to 158 nM |
| 0.0398 to 0.316 nM | Cc1cccc(-c2n[nH]cc2-c2ccc3ncc(-c4c[nH]cn4)cc3n2)n1 [Compound 157, 7-(1H-imidazol-4-yl)-2-[3-(6-methyl-2-pyridyl)-1H-pyrazol-4-yl]-1,5-naphthyridine] | 25.1 to 158 nM |
| < 0.0316 nM | Cc1cccc(-c2n[nH]cc2-c2ccc3ncc(-c4cccn(C)c4=O)cc3n2)n1 [Compound 12, 1-methyl-3-[6-[3-(6-methyl-2-pyridyl)-1H-pyrazol-4-yl]-1,5-naphthyridin-3-yl]pyridin-2-one] | < 20 nM |
| 0.0398 to 0.316 nM | Cc1cccc(-c2[nH]cnc2-c2ccc3ncc(-c4ccccn4)cc3c2)n1 [Compound 367, 6-[5-(6-methyl-2-pyridyl)-1H-imidazol-4-yl]-3-(2-pyridyl)quinoline] | 25.1 to 158 nM |
| 0.0398 to 0.316 nM | Cc1cccc(-c2[nH]cnc2-c2ccc3ncc(-c4ccc(C(=O)OC[C@@H]5CCCN5)cn4)cc3c2)n1 [Compound 1163, [(2S)-pyrrolidin-2-yl]methyl 6-[6-[5-(6-methyl-2-pyridyl)-1H-imidazol-4-yl]-3-quinolyl]pyridine-3-carboxylate] | 25.1 to 158 nM |
| 0.0398 to 0.316 nM | Cc1cccc(-c2[nH]cnc2-c2ccc3ncc(-c4nc(C(=O)OC5CCNCC5)cs4)cc3c2)n1 [Compound 742, 4-piperidyl 2-[6-[5-(6-methyl-2-pyridyl)-1H-imidazol-4-yl]-3-quinolyl]thiazole-4-carboxylate] | 25.1 to 158 nM |
| 0.0398 to 0.316 nM | Cc1cccc(-c2n[nH]cc2-c2ccc3ncc(-c4ccc(C)nc4C)cc3n2)n1 [Compound 436, 7-(2,6-dimethyl-3-pyridyl)-2-[3-(6-methyl-2-pyridyl)-1H-pyrazol-4-yl]-1,5-naphthyridine] | 25.1 to 158 nM |
